Values joined by “and” are separate entries in the source; they are usually repeats but may differ in a detail not shown here. Identical values can stand only once.
What was measured:
[1] = test system: polyArg; assay: Isothermal titration calorimetry, POM into polyArg; assay type: binding; conditions: 10 mM Mes, pH 5.5, 298.15 K
Experimental: (§1) All experiments were performed with a VP-ITC MicroCalorimeter from MicroCal, Int,. at atmospheric pressure and 298.15 K. Solutions were degassed and thermostatic prior the titration experiments in a ThermoVac accessory. A constant volume of POM ([PVW11]^4- or [SiMoW11]^4-) (10 µL per injection) was injected into the oligopeptide solution (heptaArg, protamine, polyArg or heptaLys) in 10 mM Mes, pH 5.5 to determine the apparent binding affinity of [PVW11]^4- and [SiMoW11]^4- with the oligopeptides. Dilution heats were determined by titration of the POM into buffer and subtracted from the reaction heat. The neat reaction heat was fitted with Origin 7.0 software by using the "one-set-of-sites" model to obtain the complex stability constant (Ka) and molar reaction enthalpy (ΔH°). The free energy (ΔG°) and entropy changes (ΔS°) were obtained according to the relation: ΔG° = - R TInKa = ΔH°-TΔS°.

[2] = Transport experiments in CF-loaded anionic vesicles; assay type: biochemical; conditions: DMPE/DPPG/CHOL (anionic), 13 µM phospholipids, 10 µM heptaArg
Experimental: Anionic vesicles in neutral media: Anionic vesicles were prepared analogously except for the lipid composition, DMPE/DPPG/CHOL (4.4/10.4/2.6 mg, 1/2/1 molar ratio) in a 1:1 mixture of CHCl3 and MeOH (1mL), the hydration (60 mins) and extrusion were performed at 55 °C, and the employed buffers were 100 mM CF, 10 mM Tris, pH 7.4 and 10 mM Tris, 140 mM NaCl, pH 7.4 for rehydration and elution, respectively.
Vesicles stock solutions (5-10 µL) were diluted with the corresponding buffer in a disposable plastic cuvette and gently stirred (total volume 2000 µL, final lipid concentration 13 µM). […] Fluorescence intensities were normalized to fractional emission as: I(t) = (It −I0)/(I∞ −I0) [formula]
Where I0 = It before POM addition and […] = I∞ after lysis. For Hill analysis, It before lysis was defined as transport activity, Y, and plotted against POM concentration, c, and fitted to the Hill equation (2), to afford the activity in absence of POM, Y0, the maximal activity, Ymax, the concentration needed to achieve 50 % of maximal activity, EC50, and the Hill coefficient, n. Y = Y0 + (Ymax −Y0)/(1 + (((EC50)/(c)))^n) [formula]
In the transport measurements, where different carriers (POMs) are tested with the same cargo, the activator efficiency (E) is determined by their capacity to transport the impermeable cargo to the intravesicular region and is characterized by Ymax, its maximal activity, and EC50, the effective activator concentration. An ideal carrier reaches high Ymax at low EC50. To count both factors, the activator efficiency is defined as: E = Ymax (pEC50)/(f) [formula] were pEC50 is the negative logarithm of the EC50, and fa scaling factor, which was set to 20.6 to calibrate the highest (previously known) activation efficiency, E, as 10.

[3] = test system: protamine; assay: Isothermal titration calorimetry, POM into protamine; assay type: binding; conditions: 10 mM Mes, pH 5.5, 298.15 K
Experimental: as §1

[4] = test system: CHO-K1 cells; assay: Confocal imaging of FITC-Arg8 cellular uptake; assay type: cell-based; conditions: 4 µM FITCArg8, 5 and 10 µM carrier, 1 h, fixed cells, preliminary
Experimental: For confocal microscopy experiments, CHO-K1 cells were seeded into 12-well plates (Eppendorf) at a density of 1×10^5 cells/well (per 1 mL) and incubated for 24 h in Ham's F-12 containing 10 % (v/v) fetal bovine serum at 37 °C in a 5 % CO2. The cells were washed twice with PBS, and then incubated with POMs and FITC-Arg8 (4 µM) for 1 h at 37 °C, cells were washed twice with Hank's Balanced Salt solution containing 100 µg/mL heparin, twice again with PBS and fixed with 1 mL cold 4 % paraformaldehyde for 20 min. The cells were rewashed twice with PBS and subsequently the nuclei were stained with 2 µg/mL DAPI for 10 min at room temperature before imaging. Cells were imaged by LSM 980 confocal laser scanning microscope. Images were processed with Zen 3.2 software (Zeiss).

[5] = Stability investigation by NMR spectroscopy (hydrolysis in buffer/media); assay type: physicochemical; conditions: for Hydrolysis/Stability pH 7.5: 10 mM Hepes or 10 mM Tris, pH 7.4; for Hydrolysis/Stability pH 7.5 / Hydrolysis/Stability pH 5.5: 107 mM NaCl; for Hydrolysis/Stability pH 5.5: 10 mM Mes
Text: POMs of the globular Keggin and planar Anderson archetype and with varying charge status from -3 to -8 (Fig. 1) were selected. To offset the known [XW12O40]^n- (X = hetero-ion) hydrolysis propensity in aqueous solution, most pronounced at neutral pH, more highly charged mixed-metal derivatives (Fig. 1,lefthand side) were also included. The latter are obtained by hydrolytic removal of one W=O^4+ unit from the Keggin structure and the subsequent incorporation of an addenda metal to fill the cavity of the monolacunary intermediate. In detail, the following POM anions were studied (as acid or sodium, potassium, or tetraalkylammonium salts), see Fig. 1: [α-P^VW^VI12O40]^3- ([PW12]^3-), [α-Si^IVW^VI12O40]^4- ([SiW12]^4-), [α-Al^IIIW^VI12O40]^5- ([AlW12]^5-), [α-P^VV^VW^VI11O40]^4- ([PVW11]^4-), [α-Si^IVMo^VIW^VI11O40]^4- ([SiMoW11]^4-), [α- HAl^IIIGe^IVW^VI11O39(H2O)]^5- ([GeAlW11]^5-), [{α-P^VW^VI11O39Zr^IV(µ-OH)(H2O)}2]^8- ([(PZrW11)2]^8-), and [Al^III(OH)6Mo^VI6O18]^3- ([AlMo6]^3-). First, their long-term (24 h and longer) stability in aqueous solution (slightly acidic and neutral) was investigated by applying the active NMR nuclei in their composition (see).

[6] = test system: heptaArg; assay: Isothermal titration calorimetry, POM into heptaArg; assay type: binding; conditions: 10 mM Mes, pH 5.5, 298.15 K
Experimental: as §1

[7] = Nutrient mixture F-12 Ham after incubation for 1 h at 37 °C

| Substance | PolyArg Ka/ 10^7 [1] | E (activation efficiency) [2] | EC50 [2] [µM] | Ymax [2] [%] | Protamine Ka/ 10^7 [3] | FITCArg8 uptake (confocal fluorescence microscopy) [4] | Hydrolysis/Stability pH 7.5 [5] | Hydrolysis/Stability pH 5.5 [5] | POM anions with % for parent (active) anion based on signals integration [5, 7] | HeptaArg Ka/ 10^7 [6] | other results |
| --- | --- | --- | --- | --- | --- | --- | --- | --- | --- | --- | --- |
| K4[α-P^VV^VW^VI11O40]·4H2O [[PVW11]^4-] | 3.5 ± 0.6 10^7 M-1 | 2.8 | 50 | 45 | 25 ± 9 10^7 M-1 | strong diffuse fluorescence | 20 % to [P^VW^VI11O39]^7- and 20 % hydrolyzed to [P^VW^VI11O39]^7 | stable | [P^VW^VI11O39]^7- (coordinated to different alkali and earth alkali metals leading to different shifts) and [P^VV^VW^VI11O40]^4- (16 %) | 5.7 ± 0.7 10^7 M-1 | POM anions with % for parent (active) anion based on signals integration ([5]; D2O): [P^VV^VW^VI11O40]^4-; % of hydrolysis product [P^VW^VI11O39]^7- based on signals integration ([5]; Mes pH 5.5 after 1 day): 1%; POM anions with % for parent (active) anion based on signals integration ([5]; Mes pH 5.5 after 1 day): 99%; % of hydrolysis product [P^VW^VI11O39]^7- based on signals integration ([5]; Mes pH 5.5 after 5 days): 1%; POM anions with % for parent (active) anion based on signals integration ([5]; Mes pH 5.5 after 5 days): 99%; % of hydrolysis product [P^VW^VI11O39]^7- based on signals integration ([5]; Mes pH 5.5 freshly prepared): 1%; POM anions with % for parent (active) anion based on signals integration ([5]; Mes pH 5.5 freshly prepared): 99%; POM anions with % for parent (active) anion based on signals integration ([5]; Nutrient mixture F-12 Ham freshly prepared): [P^VW^VI11O39]^7- (coordinated to different alkali and earth alkali metals leading to different shifts) and [P^VV^VW^VI11O40]^4- (43 %); POM anions with % for parent (active) anion based on signals integration ([5]; Tris-HCl pH 7.5 after 1 day): [P^VW^VI11O39]^7- and [P^VV^VW^VI11O40]^4- (71 %); POM anions with % for parent (active) anion based on signals integration ([5]; Tris-HCl pH 7.5 after 5 days): [P^VW^VI11O39]^7- and [P^VV^VW^VI11O40]^4- (68 %); POM anions with % for parent (active) anion based on signals integration ([5]; Tris-HCl pH 7.5 freshly prepared): [P^VW^VI11O39]^7- and [P^VV^VW^VI11O40]^4- (81 %); hydrolysis on long time scales at neutral pH ([5]; neutral pH, after 24 h): ca. 20% |
| K4[α-Si^IVMo^VIW^VI11O40]·24H2O [[SiMoW11]^4-] | 1.6 ± 0.2 10^7 M-1 | 3.6 | 60 | 61 | 1.7 ± 0.3 10^7 M-1 | strong diffuse fluorescence | stable | stable | [Si^IVMo^VIW^VI11O40]^4- | 0.6 10^7 M-1 | POM anions with % for parent (active) anion based on signals integration ([5]; Mes pH 5.5 (time not given)): [Si^IVMo^VIW^VI11O40]^4-; POM anions with % for parent (active) anion based on signals integration ([5]; Tris-HCl pH 7.5 (time not given)): [Si^IVMo^VIW^VI11O40]^4- |

— EP4483904A1, “POLYOXOMETALATES AS MEMBRANE CARRIERS” (Universität Wien, priority 2023, dated 2025)
